From US10738028B2, “Spiro three-membered ring, spiro five-membered ring peptide deformylase inhibitor and use thereof in antibacteria and anti-tumor” (priority 2016, dated 2020)
≈ marks a conversion by molar mass, not a printed value. Where two headings read alike, the source gives them in different places.

How the values were obtained:
[1] = test system: Enterococcus faecalis (EFA); assay: MIC, two-fold agar dilution (CLSI), clinical isolates; type: cell-based
Procedure, shortened: (§1)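 Following the American Clinical and Laboratory Standards Institute procedure, agar two-fold dilution served to determine minimum inhibitory concentrations.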

[2] = test system: Escherichia coli (including ESBLs, non-ESBLs); assay: as above; type: cell-based
Procedure, shortened: as §1

[3] = test system: methicillin-resistant Staphylococcus aureus (MRSA); assay: as above; type: cell-based
Procedure, shortened: as §1

[4] = test system: methicillin-resistant Staphylococcus epidermidis (MRSE); assay: as above; type: cell-based
Procedure, shortened: as §1

[5] = test system: methicillin-sensitive Staphylococcus aureus (MSSA); assay: as above; type: cell-based
Procedure, shortened: as §1

[6] = test system: methicillin-sensitive Staphylococcus epidermidis (MSSE); assay: as above; type: cell-based
Procedure, shortened: as §1

[7] = test system: HCT-116 colorectal cancer cell line; assay: CCK-8 proliferation inhibition; type: cell-based; conditions: Homo sapiens, HCT-116, 72 h, read-out: HCT116 inhibition rate/%
Procedure, shortened: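 Viability read-out: 1:10 diluted CCK-8 after 72 h compound exposure at 37 °C, 5% CO2. Cells (2000/well, McCoy's 5A plus 10% newborn bovine serum) pre-cultured overnight; vehicle control 1‰ DMSO.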

[8] = test system: methemoglobin in blood samples of three healthy volunteers; assay: Toxicity on methemoglobin in vitro (whole blood with S9 and NADPH, absorbance at 630 nm); type: cell-based, human; conditions: for MetHb % (n = 3): 500 μM compound, whole blood + S9 + NADPH, 5 hours at 37° C.; for probability of methemoglobin formation in blood compared with the control drugs LBM415 and GSK1322322: toxicity test in vitro, in words
Description: Because PDF inhibitors such as LBM415 and GSK1322322 can produce active species such as aromatic hydroxylamine and aromatic hydrazines in metabolic process, and cause human methemoglobinemia. To this end, continuous wavelength method was adopted in this invention to scan the absorption spectrum of blood samples in the wavelength range of 500 to 700 nm in the ultraviolet-visible spectrophotometer, and the contents of methemoglobin in blood samples of three healthy volunteers were calculated, after being effected by the synthesized compounds.
Experimental materials: Nicotinamide adenine dinucleotide phosphate (NADPH) reduction system: glucose-6-disodium phosphate, nicotinamide adenine dinucleoside phosphate and glucose-6-phosphate dehydrogenase (purchased from Shanghai yuanye Bio-Technology Co., Ltd) were added to 1 mL of phosphate buffer solution (PBS, pH 7.4), and the mixture was shaked in a shaker type water bath at 37° C. for 10 min, and then cooled to 0° C. Mixed human hepatocytes fraction S9 was purchased from Xenotech (20 mg S9 protein/1 mL suspension medium). Compounds were prepared to stock solution at a concentration of 50 mM, which was stored at −20° C. for use. Dapsone was used as positive control experimental reagent, which was purchased from Sigma Aldrich. 1% w/v triton X-100 was self-prepared. Blood samples were collected using Vacutainer tubes containing EDTA anticoagulants (BD, Franklin Lakes, USA), which were sampled from three healthy volunteers and used immediately after sampling.
Preparation of incubation system for blood samples and drugs: 250 μL of incubation system was consist of 220 μL of whole blood, 25 μL of S9 (final concentration: 2 mg S9 protein/mL incubation solution), 2.5 μL of NADPH form system (final concentration: 10 mM G-6-P, 1 mM NADP, 7.5 Units/mL) and 2.5 μL of stock solution of a compound (final concentration 500 μM). […] of incubation system was placed in an Eppendorf tube and incubated for 5 hours at 37° C. in water bath.
Determination of the content of methemoglobin: 60 μL of an incubated sample was taken and lysed with 3.0 mL of 1% Triton X-100. The content of methemoglobin (MetHb) was measured by an ultraviolet-visible spectrophotometer, with the Triton X-100 solution used as blank control. A sample was placed in a cuvette, 1 minute later, the spectrums of the sample in the wavelength range from 500 nm to 700 nm were recorded. The sample was added with 2 mg of potassium ferricyanide, and was allowed to stay stationary for 2 minutes for completely oxidization of ferrous iron in the sample, and standard spectrum of methemoglobin with saturated potassium ferricyanide. The percentage of methemoglobin formation (MetHb %) was obtained by the ratio of absorbance at 630 nm. MetHb %=(A′−AB′)/AM′, wherein, A′ was the total absorbance of the sample at 630 nm, AB′ was the base absorbance of the reduced blood in the sample at 630 nm, and AM′ was the absorbance of oxidized blood with saturated potassium ferricyanide at 630 nm.

[9] = MIC in vitro anti-bacterial experiments, Gram-positive bacteria; type: cell-based; conditions: lowest MIC reached; read-out: minimum inhibitory concentration against Gram-positive bacteria
From the text: 1. The invention adopts the two-fold agar dilution method recommended by the operating procedure of antimicrobial susceptibility testing set by American Clinical and Laboratory Standards Institute (CLSI) to determine the Minimum Inhibitory Concentration (MIC) of the test samples against the tested strains.

[10] = strain printed MRSA 14-1 (second line of that name, r23, before MRSE 14-2)
[11] = concentration of 30 μM, 72 hours, CCK-8

Row | Compound | MIC (anti-bacterial activity) ([1]; strain EFA 14-1) [µg/mL] | MIC (anti-bacterial activity) ([1]; strain EFA 14-2) [µg/mL] | MIC (anti-bacterial activity) ([1]; strain EFA 14-3) [µg/mL] | MIC (anti-bacterial activity) ([1]; strain EFA 14-5) [µg/mL] | MIC (anti-bacterial activity) ([2]; strain ECO+ 14-1) [µg/mL] | MIC (anti-bacterial activity) ([2]; strain ECO+ 14-2) [µg/mL] | MIC (anti-bacterial activity) ([2]; strain ECO− 14-1) [µg/mL] | MIC (anti-bacterial activity) ([2]; strain ECO− 14-2) [µg/mL] | MIC (anti-bacterial activity) ([3]; strain MRSA 14-1) [µg/mL] | MIC (anti-bacterial activity) ([3]; strain MRSA 14-2) [µg/mL] | MIC (anti-bacterial activity) ([3]; strain MRSA 14-4) [µg/mL] | MIC (anti-bacterial activity) ([3]; strain MRSA 14-5) [µg/mL] | MIC (anti-bacterial activity) [3, 10] [µg/mL] | MIC (anti-bacterial activity) ([4]; strain MRSE 14-2) [µg/mL] | MIC (anti-bacterial activity) ([4]; strain MRSE 14-3) [µg/mL] | MIC (anti-bacterial activity) ([4]; strain MRSE 14-4) [µg/mL] | MIC (anti-bacterial activity) ([5]; strain MSSA 14-1) [µg/mL] | MIC (anti-bacterial activity) ([5]; strain MSSA 14-2) [µg/mL] | MIC (anti-bacterial activity) ([5]; strain MSSA 14-3) [µg/mL] | MIC (anti-bacterial activity) ([5]; strain MSSA 14-4) [µg/mL] | other results
1 | CCCC[C@H](CN(O)C=O)C(=O)N1CC2(CC2)C[C@H]1C(=O)Nc1ccc(F)c[n+]1[O-] [Example 2] | 0.25 (≈ 0.592 µM) | 0.5 (≈ 1.18 µM) | 0.5 (≈ 1.18 µM) | 128 (≈ 303 µM) | 1 (≈ 2.37 µM) | 64 (≈ 151 µM) | 128 (≈ 303 µM) | 64 (≈ 151 µM) | 0.25 (≈ 0.592 µM) | 0.25 (≈ 0.592 µM) | 0.125 (≈ 0.296 µM) | 0.125 (≈ 0.296 µM) | 0.03 (≈ 0.071 µM) | 0.06 (≈ 0.142 µM) | 0.06 (≈ 0.142 µM) | 0.125 (≈ 0.296 µM) | 0.125 (≈ 0.296 µM) | 0.125 (≈ 0.296 µM) | 0.125 (≈ 0.296 µM) | 0.125 (≈ 0.296 µM) | MIC ([3]; Staphylococcus aureus, MRSA, range over strains, read-out: minimum inhibitory concentration MIC against methicillin-resistant Staphylococcus (MRSA)): 0.125 to 0.25 µg/mL (≈ 0.296 to 0.592 µM); MIC (anti-bacterial activity) ([6]; strain MSSE 14-1): 0.03 µg/mL (≈ 0.071 µM); MIC (anti-bacterial activity) ([6]; strain MSSE 14-2): 0.125 µg/mL (≈ 0.296 µM); MIC (anti-bacterial activity) ([6]; strain MSSE 14-3): 0.03 µg/mL (≈ 0.071 µM); MIC (anti-bacterial activity) ([6]; strain MSSE 14-4): 0.03 µg/mL (≈ 0.071 µM); inhibition at 30 µM [7, 11]: 2%; MetHb % (n = 3) [8]: 3.32 ± 0.05%; probability of methemoglobin formation in blood compared with the control drugs LBM415 and GSK1322322 [8]: lower probability of methemoglobin formation in blood
2 | CCCC[C@H](CN(O)C=O)C(=O)N1CC2(CC2)C[C@H]1C(=O)Nc1ccc(C)c(Nc2nccc(-c3cccnc3)n2)c1 [Example 4] | 0.03 (≈ 0.0525 µM) | 0.015 (≈ 0.0262 µM) | 0.03 (≈ 0.0525 µM) | > 128 | 4 (≈ 7 µM) | > 128 | > 128 | > 128 | 0.015 (≈ 0.0262 µM) | 0.015 (≈ 0.0262 µM) | < 0.008 | < 0.008 | < 0.008 | < 0.008 | < 0.008 | < 0.008 | 0.015 (≈ 0.0262 µM) | 0.015 (≈ 0.0262 µM) | 0.015 (≈ 0.0262 µM) | 0.015 (≈ 0.0262 µM) | MIC (anti-bacterial activity) ([6]; strain MSSE 14-1): 0.015 µg/mL (≈ 0.0262 µM); MIC (anti-bacterial activity) ([6]; strain MSSE 14-2): < 0.008 µg/mL; MIC (anti-bacterial activity) ([6]; strain MSSE 14-3): < 0.008 µg/mL; MIC (anti-bacterial activity) ([6]; strain MSSE 14-4): 0.015 µg/mL (≈ 0.0262 µM); inhibition at 30 µM [7, 11]: 18%; MIC [9]: < 0.008 µg/mL
3 | CCCC[C@H](CN(O)C=O)C(=O)N1CC2(CC2)C[C@H]1C(=O)Nc1cccc(-c2cccnc2)c1 [Example 7, (S)-5-((R)-2-((N-hydroxyformamido)methyl)hexylcarbonyl)-N-(3-(pyridin-3-yl)phenyl)-5-5-azaspiro[2.4]heptane-6-amide] |  |  |  |  |  |  |  |  |  |  |  |  |  |  |  |  |  |  |  |  | inhibition at 30 µM [7]: 23%; MetHb % (n = 3) [8]: 2.24 ± 0.05%; probability of methemoglobin formation in blood compared with the control drugs LBM415 and GSK1322322 [8]: lower probability of methemoglobin formation in blood
4 | CCCC[C@H](CN(O)C=O)C(=O)N1CC2(CC2)C[C@H]1C(=O)Nc1cccc(Nc2ncccn2)c1 [Example 8] | 0.5 (≈ 1.04 µM) | 1 (≈ 2.08 µM) | 1 (≈ 2.08 µM) | 1 (≈ 2.08 µM) | 1 (≈ 2.08 µM) | 64 (≈ 133 µM) | 128 (≈ 266 µM) | 128 (≈ 266 µM) | 0.25 (≈ 0.52 µM) | 0.25 (≈ 0.52 µM) | 0.25 (≈ 0.52 µM) | 0.125 (≈ 0.26 µM) | 0.125 (≈ 0.26 µM) | 0.25 (≈ 0.52 µM) | 0.06 (≈ 0.125 µM) | 0.25 (≈ 0.52 µM) | 0.25 (≈ 0.52 µM) | 0.25 (≈ 0.52 µM) | 0.25 (≈ 0.52 µM) | 0.125 (≈ 0.26 µM) | MIC (anti-bacterial activity) ([6]; strain MSSE 14-1): 0.125 µg/mL (≈ 0.26 µM); MIC (anti-bacterial activity) ([6]; strain MSSE 14-2): 0.25 µg/mL (≈ 0.52 µM); MIC (anti-bacterial activity) ([6]; strain MSSE 14-3): 0.125 µg/mL (≈ 0.26 µM); MIC (anti-bacterial activity) ([6]; strain MSSE 14-4): 0.25 µg/mL (≈ 0.52 µM); inhibition at 30 µM [7]: 11%; MetHb % (n = 3) [8]: 4.12 ± 0.07%; probability of methemoglobin formation in blood compared with the control drugs LBM415 and GSK1322322 [8]: lower probability of methemoglobin formation in blood
5 | CCCC[C@H](CN(O)C=O)C(=O)N1CC2(CC2)C[C@H]1C(=O)Nc1nccc(-c2cccnc2)n1 [Example 9] | 0.5 (≈ 1.07 µM) | 0.5 (≈ 1.07 µM) | 1 (≈ 2.14 µM) | 0.5 (≈ 1.07 µM) | 2 (≈ 4.29 µM) | > 64 | > 64 | > 64 | 2 (≈ 4.29 µM) | 0.5 (≈ 1.07 µM) | 2 (≈ 4.29 µM) | 0.25 (≈ 0.536 µM) | 0.25 (≈ 0.536 µM) | 0.25 (≈ 0.536 µM) | 0.125 (≈ 0.268 µM) | 0.5 (≈ 1.07 µM) | 0.25 (≈ 0.536 µM) | 0.5 (≈ 1.07 µM) | 0.5 (≈ 1.07 µM) | 0.25 (≈ 0.536 µM) | MIC (anti-bacterial activity) ([6]; strain MSSE 14-1): 0.125 µg/mL (≈ 0.268 µM); MIC (anti-bacterial activity) ([6]; strain MSSE 14-2): 0.5 µg/mL (≈ 1.07 µM); MIC (anti-bacterial activity) ([6]; strain MSSE 14-3): 0.25 µg/mL (≈ 0.536 µM); MIC (anti-bacterial activity) ([6]; strain MSSE 14-4): 0.5 µg/mL (≈ 1.07 µM); inhibition at 30 µM [7]: 6%; MetHb % (n = 3) [8]: 1.13 ± 0.06%; probability of methemoglobin formation in blood compared with the control drugs LBM415 and GSK1322322 [8]: lower probability of methemoglobin formation in blood
